Tests used:
[1] = target: T1, UDP-glucose 6-dehydrogenase (HsUGDH) (Homo sapiens, UniProt O60701); test: spectrophotometric assay, helper enzyme inhibited (no numbers shown); assay type: biochemical
T1 construct: gene UGDH; recombinant HsUGDH with N-terminal Strep-tag and four-residue linker
T1 sequence (O60701 1-494): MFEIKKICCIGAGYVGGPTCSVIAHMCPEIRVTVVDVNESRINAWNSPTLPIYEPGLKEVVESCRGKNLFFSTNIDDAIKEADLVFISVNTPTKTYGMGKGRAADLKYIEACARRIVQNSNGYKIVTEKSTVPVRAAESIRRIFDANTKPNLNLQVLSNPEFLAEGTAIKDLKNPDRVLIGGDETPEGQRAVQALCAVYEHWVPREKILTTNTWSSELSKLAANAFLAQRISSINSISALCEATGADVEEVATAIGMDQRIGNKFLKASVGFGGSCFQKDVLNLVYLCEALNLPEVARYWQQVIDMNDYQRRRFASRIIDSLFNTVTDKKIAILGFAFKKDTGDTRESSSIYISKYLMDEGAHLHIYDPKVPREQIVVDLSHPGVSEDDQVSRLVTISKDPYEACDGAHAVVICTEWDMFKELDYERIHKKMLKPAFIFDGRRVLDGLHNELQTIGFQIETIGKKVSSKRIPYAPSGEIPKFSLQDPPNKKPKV

[2] = target: T2, UDP-glucose 4-epimerase (EhGalE) (Entamoeba histolytica, UniProt C4M746); test: RP-HPLC of UDP-Gal to UDP-Glc conversion by purified recombinant enzyme after […] min preincubation; assay type: biochemical
T2 construct: gene EHI_192050; full-length recombinant EhGalE (XP_650346) with N-terminal Strep-tag and Gly-Gly-Gly-Ser linker
T2 sequence (C4M746 1-341): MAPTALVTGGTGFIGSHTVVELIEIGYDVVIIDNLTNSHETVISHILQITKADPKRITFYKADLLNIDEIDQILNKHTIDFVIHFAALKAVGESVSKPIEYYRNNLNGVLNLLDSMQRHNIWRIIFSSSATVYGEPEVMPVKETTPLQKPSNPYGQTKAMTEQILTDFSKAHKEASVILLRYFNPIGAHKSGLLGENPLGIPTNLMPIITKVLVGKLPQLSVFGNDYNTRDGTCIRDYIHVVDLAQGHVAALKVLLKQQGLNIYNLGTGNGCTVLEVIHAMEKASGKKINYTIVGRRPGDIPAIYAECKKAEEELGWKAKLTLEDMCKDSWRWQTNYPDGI

SMILES	spectrophotometric assay, helper enzyme inhibited (no numbers shown) [1]	IC50 [2]
C=C(CC)C(=O)c1ccc(OCC(=O)O)c(Cl)c1Cl [ethacrynic acid]	the helper enzyme UGDH was inhibited by all three compounds	
O=c1c2ccccc2[se]n1-c1ccccc1 [ebselen]	the helper enzyme UGDH was inhibited by all three compounds	2190 nM
CC/C(=C(/CC)c1ccc(O)cc1)c1ccc(O)cc1 [diethylstilbestrol]	the helper enzyme UGDH was inhibited by all three compounds	
